Drawing on PubChem BioAssay AID1345 (Sanford-Burnham Center for Chemical Genomics, 2008), this text covers viability for 11 compounds.

Active and inactive are the calls of the source.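 Rule for the calls: active = survival above 70% of the untreated level at 25 µM; inactive = the rest.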

For this experiment, the system named is CSM14.1 cells, VP16-induced death, ATP luminescence, 48 h. The experiment is described as follows: protection against VP16 DNA-damage killing – cell-based, undifferentiated CSM14.1, ATP content, selectivity assay for ER stress death inhibitor project, late-stage follow-up (AID 1345). The note with it: at 25 µM; active compounds read high.
What is called viability is the share of living cells, or the viability signal relative to a control. As to `CCOc1cccc(C2Nc3ccccc3NC3=C2C(=O)CC(c2ccc(OC)cc2)C3)c1` (stereo unspecified), the viability is 50% (inactive). Then `CC1(C)CC(=O)C2=C(C1)Nc1ccccc1NC2c1ccc(-c2ccccc2)cc1` (stereo unspecified), with 53% (inactive); and `CSc1ccc(C2Nc3ccccc3NC3=C2C(=O)CC(c2ccccc2)C3)cc1` (stereo unspecified), with 52% (inactive). As to `COc1ccc(C2CC(=O)C3=C(C2)Nc2ccccc2NC3c2cccc(Br)c2)cc1OC` (stereo unspecified), the viability was 56% (inactive). For `COc1ccc(C2CC(=O)C3=C(C2)Nc2ccccc2NC3c2cccc(Oc3ccccc3)c2)cc1OC` (stereo unspecified) the value was 54% (inactive). As to `COc1ccc(C2CC(=O)C3=C(C2)Nc2ccccc2NC3c2ccccc2C(F)(F)F)cc1OC` (stereo unspecified), the viability is 50% (inactive). Take `CCOc1cc(C2Nc3ccccc3NC3=C2C(=O)CC(c2ccc(OC)cc2)C3)cc(Cl)c1O` (stereo unspecified): the viability was 42% (inactive). For `O=C1CC(c2ccccc2)CC2=C1C(c1c(F)cccc1Cl)Nc1ccccc1N2` (stereo unspecified) the value was 50% (inactive); for `CCCOc1ccc(C2Nc3ccccc3NC3=C2C(=O)CC(c2ccc(OC)c(OC)c2)C3)cc1` (stereo unspecified), 57% (inactive).

Consider `COc1ccc(C2CC(=O)C3=C(C2)Nc2ccccc2NC3c2cc(C)ccc2C)cc1` (stereo unspecified), for which the viability is 56% (inactive). For `COc1ccc(C2CC(=O)C3=C(C2)Nc2ccccc2NC3c2cccc(C(F)(F)F)c2)cc1OC` (stereo unspecified), the viability is 49% (inactive).
